Paper PMC7053747 (PLoS ONE, 2020)
Like-named read-outs stand apart in the source and are kept apart here.

Legend:
kappa opioid receptor = kappa opioid receptor (Homo sapiens, UniProt P41145); assay: biochemical; format: binding
delta opioid receptor = delta opioid receptor (Homo sapiens, UniProt P41143); assay: biochemical; format: binding
[1] = molecular target: T1, adrenergic alpha2A receptor (Homo sapiens, UniProt P08913); assay: biochemical; format: binding
T1 sequence (P08913 1-465): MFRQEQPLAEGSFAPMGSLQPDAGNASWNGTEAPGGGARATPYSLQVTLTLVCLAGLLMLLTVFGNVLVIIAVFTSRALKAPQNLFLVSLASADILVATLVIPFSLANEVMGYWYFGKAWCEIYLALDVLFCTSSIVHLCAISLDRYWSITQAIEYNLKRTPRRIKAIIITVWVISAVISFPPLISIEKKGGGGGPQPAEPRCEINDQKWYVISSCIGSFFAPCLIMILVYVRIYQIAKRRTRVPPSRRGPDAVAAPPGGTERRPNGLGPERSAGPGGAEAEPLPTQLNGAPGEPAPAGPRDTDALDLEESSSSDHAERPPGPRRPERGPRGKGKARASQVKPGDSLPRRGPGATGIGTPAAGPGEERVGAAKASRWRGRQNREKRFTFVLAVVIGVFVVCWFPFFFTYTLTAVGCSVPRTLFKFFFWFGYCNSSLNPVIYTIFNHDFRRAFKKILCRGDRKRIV

[2] = molecular target: T2, adrenergic alpha2B receptor (Homo sapiens, UniProt P18089); assay: biochemical; format: binding
T2 construct: host or cells: transient HEKT cells
T2 sequence (P18089 1-450): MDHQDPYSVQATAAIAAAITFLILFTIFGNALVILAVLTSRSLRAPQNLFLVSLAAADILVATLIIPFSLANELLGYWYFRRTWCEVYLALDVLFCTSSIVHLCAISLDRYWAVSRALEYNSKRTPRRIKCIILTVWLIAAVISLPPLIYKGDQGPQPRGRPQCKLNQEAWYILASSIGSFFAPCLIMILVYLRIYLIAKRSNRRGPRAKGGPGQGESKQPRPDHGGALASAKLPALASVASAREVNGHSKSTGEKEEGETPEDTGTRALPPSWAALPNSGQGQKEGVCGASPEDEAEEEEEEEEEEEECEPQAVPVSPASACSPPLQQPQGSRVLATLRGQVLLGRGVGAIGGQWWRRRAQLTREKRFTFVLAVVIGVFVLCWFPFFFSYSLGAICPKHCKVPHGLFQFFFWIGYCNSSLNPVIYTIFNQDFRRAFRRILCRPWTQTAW

[3] = molecular target: T3, adrenergic alpha2C receptor (Homo sapiens, UniProt P18825); assay: biochemical; format: binding
T3 sequence (P18825 1-462): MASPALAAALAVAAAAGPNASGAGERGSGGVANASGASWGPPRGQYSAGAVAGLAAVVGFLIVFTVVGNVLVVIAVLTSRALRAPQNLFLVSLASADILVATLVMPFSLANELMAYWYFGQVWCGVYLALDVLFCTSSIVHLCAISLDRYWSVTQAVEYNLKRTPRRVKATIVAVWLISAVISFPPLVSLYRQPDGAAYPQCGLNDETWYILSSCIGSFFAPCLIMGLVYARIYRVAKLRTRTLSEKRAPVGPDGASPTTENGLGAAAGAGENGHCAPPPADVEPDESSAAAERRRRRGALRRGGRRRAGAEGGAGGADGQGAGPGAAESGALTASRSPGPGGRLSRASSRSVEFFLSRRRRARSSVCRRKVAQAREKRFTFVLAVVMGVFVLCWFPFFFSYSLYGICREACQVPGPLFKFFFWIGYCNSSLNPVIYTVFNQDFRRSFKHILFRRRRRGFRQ

serotonin 5HT1A receptor = molecular target: T4, serotonin 5HT1A receptor (Homo sapiens, UniProt P08908); assay: biochemical; format: binding
T4 sequence (P08908 1-422): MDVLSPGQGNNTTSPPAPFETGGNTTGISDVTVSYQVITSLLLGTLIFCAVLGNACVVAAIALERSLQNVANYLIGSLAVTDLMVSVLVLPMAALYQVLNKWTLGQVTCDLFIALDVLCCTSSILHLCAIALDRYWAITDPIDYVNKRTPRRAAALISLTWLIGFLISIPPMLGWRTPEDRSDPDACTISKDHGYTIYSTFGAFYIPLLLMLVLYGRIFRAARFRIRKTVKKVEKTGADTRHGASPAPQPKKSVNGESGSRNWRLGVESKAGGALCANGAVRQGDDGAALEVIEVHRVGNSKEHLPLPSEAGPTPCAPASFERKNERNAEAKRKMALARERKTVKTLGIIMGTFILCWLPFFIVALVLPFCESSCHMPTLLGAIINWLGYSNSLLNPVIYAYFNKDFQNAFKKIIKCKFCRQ

serotonin 5HT2A receptor = molecular target: T5, serotonin 5HT2A receptor (Homo sapiens, UniProt P28223); assay: biochemical; format: binding
T5 construct: host or cells: transient HEKT cells (ATCC CRL-11268)
T5 sequence (P28223 whole entry): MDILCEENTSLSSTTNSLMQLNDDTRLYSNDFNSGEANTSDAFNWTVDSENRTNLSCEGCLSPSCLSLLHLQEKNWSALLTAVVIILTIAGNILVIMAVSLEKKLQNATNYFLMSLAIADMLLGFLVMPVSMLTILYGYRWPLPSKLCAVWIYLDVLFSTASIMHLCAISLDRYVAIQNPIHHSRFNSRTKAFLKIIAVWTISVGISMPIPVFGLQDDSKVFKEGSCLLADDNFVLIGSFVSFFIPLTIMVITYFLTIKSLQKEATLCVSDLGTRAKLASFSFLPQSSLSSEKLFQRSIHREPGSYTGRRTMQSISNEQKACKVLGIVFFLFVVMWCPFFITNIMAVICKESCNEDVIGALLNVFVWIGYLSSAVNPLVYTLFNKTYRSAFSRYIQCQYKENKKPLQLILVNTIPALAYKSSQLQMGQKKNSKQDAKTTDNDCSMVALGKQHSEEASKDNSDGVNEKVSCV

mouse opioid receptor = conditions: read-out: binding affinity; cited from earlier work
human mu opioid receptor [4] = conditions: read-out: binding affinity; cited from earlier work
[5] = molecular target: rodent mu opioid receptor; conditions: read-out: binding affinity; cited from earlier work
[6] = molecular target: human kappa opioid receptor; conditions: read-out: binding affinity; cited from earlier work
[7] = molecular target: rodent kappa opioid receptor; conditions: read-out: binding affinity; cited from earlier work
[8] = molecular target: human delta opioid receptor; conditions: read-out: binding affinity; cited from earlier work
[9] = molecular target: rodent delta opioid receptor; conditions: read-out: binding affinity; cited from earlier work
human mu opioid receptor [10] = conditions: cited from earlier work
[11] = test system: rodent mu opioid receptors; conditions: cited from earlier work
mu opioid receptor [12] = molecular target: mu opioid receptor (Homo sapiens, UniProt P35372); assay: biochemical; format: binding
Chain of mu opioid receptor (Homo sapiens, UniProt P35372) (P35372 whole entry): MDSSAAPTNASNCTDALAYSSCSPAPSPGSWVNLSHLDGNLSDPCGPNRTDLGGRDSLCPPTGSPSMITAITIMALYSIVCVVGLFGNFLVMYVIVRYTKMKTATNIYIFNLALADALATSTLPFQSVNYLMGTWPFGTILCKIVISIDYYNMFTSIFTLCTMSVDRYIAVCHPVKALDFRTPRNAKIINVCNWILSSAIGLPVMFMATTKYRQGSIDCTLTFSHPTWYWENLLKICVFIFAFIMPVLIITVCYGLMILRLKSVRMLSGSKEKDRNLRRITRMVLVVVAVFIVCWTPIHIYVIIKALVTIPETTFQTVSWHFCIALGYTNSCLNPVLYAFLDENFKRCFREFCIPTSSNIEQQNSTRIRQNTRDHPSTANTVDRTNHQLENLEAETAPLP

mu opioid receptor [13] = conditions: cited from earlier work

Chain of delta opioid receptor (P41143 whole entry): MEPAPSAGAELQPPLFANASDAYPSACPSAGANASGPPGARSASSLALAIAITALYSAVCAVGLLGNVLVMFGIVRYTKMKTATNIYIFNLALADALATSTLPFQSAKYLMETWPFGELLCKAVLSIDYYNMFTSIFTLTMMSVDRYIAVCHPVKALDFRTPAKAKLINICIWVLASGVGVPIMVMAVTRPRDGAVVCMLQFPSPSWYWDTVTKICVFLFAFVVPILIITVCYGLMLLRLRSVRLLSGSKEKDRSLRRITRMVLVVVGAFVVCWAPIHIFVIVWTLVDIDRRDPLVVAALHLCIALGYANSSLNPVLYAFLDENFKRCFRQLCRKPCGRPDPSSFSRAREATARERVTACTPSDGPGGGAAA
Chain of kappa opioid receptor (P41145 whole entry): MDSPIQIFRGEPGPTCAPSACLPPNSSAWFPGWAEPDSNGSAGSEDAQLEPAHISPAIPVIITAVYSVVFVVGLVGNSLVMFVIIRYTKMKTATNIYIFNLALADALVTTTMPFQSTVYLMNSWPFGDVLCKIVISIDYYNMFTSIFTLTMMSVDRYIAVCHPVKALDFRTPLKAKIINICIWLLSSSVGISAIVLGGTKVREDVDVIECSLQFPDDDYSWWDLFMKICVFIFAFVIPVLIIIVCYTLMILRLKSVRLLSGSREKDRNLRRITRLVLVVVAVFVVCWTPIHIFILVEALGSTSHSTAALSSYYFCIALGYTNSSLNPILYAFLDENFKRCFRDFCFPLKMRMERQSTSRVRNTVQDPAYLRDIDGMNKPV

Compound | Ki (mu opioid receptor [12]) [µM] | Ki (kappa opioid receptor) [µM] | Ki (delta opioid receptor) [µM] | Ki [1] [nM] | Ki [3] [µM] | Ki (serotonin 5HT1A receptor) [µM] | Ki (serotonin 5HT2A receptor) [µM] | Ki [2] [µM] | further results
CC[C@H]1CN2CCc3c([nH]c4cccc(OC)c34)[C@@H]2C[C@@H]1/C(=C\OC)C(=O)OC [Compound 2, Speciogynine] |  |  |  |  |  |  |  |  | Ki (kappa opioid receptor; read-out: Ki): 3.6 µM; Ki (delta opioid receptor; read-out: Ki): > 10 µM; Ki ([1]; read-out: Ki): 360 nM; Ki ([2]; read-out: Ki): 2.6 µM; Ki ([3]; read-out: Ki): 0.68 µM; Ki (serotonin 5HT1A receptor; read-out: Ki): 0.54 µM; Ki (serotonin 5HT2A receptor; read-out: Ki): 2.9 µM; Ki (mouse opioid receptor): < 10 µM
C=C[C@H]1CN2CCc3c([nH]c4cccc(OC)c34)[C@@H]2C[C@@H]1/C(=C\OC)C(=O)OC [Compound 5, Paynantheine] |  |  |  |  |  |  |  |  | Ki (human mu opioid receptor [4]): 410 ± 200 nM; Ki [5]: 670 ± 80 nM; Ki [6]: 2600 ± 400 nM; Ki [7]: 890 ± 300 nM; Ki [8]: > 10 µM; Ki [9]: 4.3 ± 0.7 µM; functional activity (BRET) (human mu opioid receptor [10]): antagonist; functional activity (BRET) [11]: no agonist or antagonist activity
CC[C@@H]1CN2CC[C@@]3(O)C(=Nc4cccc(OC)c43)[C@@H]2C[C@@H]1/C(=C\OC)C(=O)OC [Compound 7, 7-Hydroxymitragynine] |  |  |  |  |  |  |  |  | Ki (kappa opioid receptor; read-out: Ki): 0.32 µM; Ki (delta opioid receptor; read-out: Ki): 0.47 µM; Ki ([1]; read-out: Ki): > 10000 nM; Ki ([2]; read-out: Ki): > 10 µM; Ki ([3]; read-out: Ki): > 10 µM; Ki (serotonin 5HT1A receptor; read-out: Ki): > 10 µM; Ki (serotonin 5HT2A receptor; read-out: Ki): > 10 µM
COC(=O)C1=CO[C@@H](C)C2CN3CCc4c([nH]c5ccccc45)[C@@H]3C[C@H]12 (some centres unmarked) [Compound 11, Ajmalicine] | 8.96 | > 10 | > 10 | 45 | 0.065 | 0.42 | > 10 |  | 
COC(=O)C1=CO[C@@H](C)[C@@H]2CN3CCc4c([nH]c5ccccc45)[C@@H]3C[C@H]12 [Compound 12, Tetrahydroalstonine] | > 10 | > 10 | > 10 | 18 | 0.053 | 0.38 | 2.6 | 0.04 | 
CC[C@@H]1CN2CC[C@]3(C(=O)Nc4ccccc43)[C@@H]2C[C@@H]1/C(=C\OC)C(=O)OC [Compound 14, Corynoxine B] | 1.6 | > 10 | 7.6 | > 10000 | > 10 | > 10 | > 10 | > 10 | 
CC[C@H]1CN2CC[C@@]3(C(=O)Nc4ccccc43)[C@@H]2C[C@@H]1/C(=C\OC)C(=O)OC [Compound 16, Isorhynchophylline] |  | > 10 | 6.4 | 4800 | > 10 | > 10 | > 10 | > 10 | 
C=C[C@H]1CN2CC[C@]3(C(=O)Nc4ccccc43)[C@@H]2C[C@@H]1/C(=C\OC)C(=O)OC [Compound 20, Corynoxeine] | > 10 | > 10 | > 10 | > 10000 | > 10 | > 10 | > 10 | 8.4 | 
C=C[C@H]1CN2CC[C@@]3(C(=O)Nc4ccccc43)[C@@H]2C[C@@H]1/C(=C\OC)C(=O)OC [Compound 21, Isocorynoxeine] | > 10 | > 10 | > 10 | > 10000 | > 10 | > 10 | > 10 | > 10 | 
CCOC(=O)C1(c2ccccc2)CCN(CCC(C#N)(c2ccccc2)c2ccccc2)CC1 [diphenoxylate] |  |  |  |  |  |  |  |  | Ki (mu opioid receptor [13]): 12.4 nM
CCC(=O)O[C@](Cc1ccccc1)(c1ccccc1)[C@H](C)CN(C)C [propoxyphene] |  |  |  |  |  |  |  |  | Ki (mu opioid receptor [13]): 120 nM
Mitragynine [Compound 1] |  |  |  |  |  |  |  |  | Ki (kappa opioid receptor; read-out: Ki): 1.3 µM; Ki (delta opioid receptor; read-out: Ki): 6.5 µM; Ki ([1]; read-out: Ki): 2300 nM; Ki ([2]; read-out: Ki): 4.9 µM; Ki ([3]; read-out: Ki): 3.5 µM; Ki (serotonin 5HT1A receptor; read-out: Ki): 5.8 µM; Ki (serotonin 5HT2A receptor; read-out: Ki): 7.3 µM; functional activity (BRET) (human mu opioid receptor [10]): partial agonist; functional activity (BRET) [11]: competitive antagonist
